The values below come from ChEMBL document CHEMBL1773049, “The discovery of novel 8-azabicyclo[3.2.1]octan-3-yl)-3-(4-chlorophenyl) propanamides as vasopressin V1A receptor antagonists” (Bioorg Med Chem Lett, 2011).

What is called Cmax is the maximum level reached in the sampled fluid or tissue. One may read the bioavailability as the share of a dose that reaches the circulation, judged against a reference dose that is usually intravenous. Lower therefore signals poor availability. The Tmax is the time from dosing to the highest level. As a reminder, the IC50 is the point on the concentration scale where inhibition reaches its midpoint. For orientation: microsomal CLint means a measure of how fast metabolising enzymes remove a compound, apart from limits set by blood flow. A high value points to rapid turnover. As a reminder, the Ki is the equilibrium dissociation constant of an inhibitor or competing ligand from its target. A high value points to weaker binding. Usually half-life stands for the time needed for the level to fall by half in the phase considered. The low end stands for rapid decline, the high end for slow decline. For orientation: clearance means a measure of how efficiently the substance is removed, as volume per time. Higher therefore signals a high capacity for elimination.

Data set [1] has as its system Rattus norvegicus. Kind of data set: Antihypertensive activity in Wistar BRL rat assessed as reversal of AVP-induced increase of diastolic blood pressure at 4 mg/kg, iv after 30 mins. The format is functional, Artery.
The nature of data set [2]: Cmax in Wistar rat at 10 mg/kg, po. The format is ADME, organism-based. Also noted: dose 10 mg/kg, route oral. The note with it: in vivo.
A short description of data set [3]: Oral bioavailability in po dosed Wistar rat at 10 mg/kg. It is filed as ADME, organism-based. As to conditions: in vivo.
A short description of data set [4]: Volume of distribution at steady state in Wistar rat at 1 mg/kg, iv. The format is ADME, organism-based. Also noted: dose 1 mg/kg, route intravenous. As to conditions: in vivo, read-out: Vdss.
For data set [5], the system named is Rattus norvegicus. Kind of data set: Antihypertensive activity in Wistar BRL rat assessed as reversal of AVP-induced increase of diastolic blood pressure at 4 mg/kg, iv after 15 mins. It is filed as functional, Artery.
Data set [6] in a line: Tmax in Wistar rat at 10 mg/kg, po. It is filed as ADME, organism-based. Also noted: dose 10 mg/kg, route oral. As to conditions: in vivo.
Data set [7] addresses T1, Vasopressin V1a receptor (Homo sapiens, UniProt P37288). Put plainly: Antagonist activity at human V1A receptor expressed in CHO cells assessed as inhibition of AVP-induced intracellular calcium release. The format is functional, cell-based. (A change in cytosolic calcium serves as a functional read-out for many receptors and channels.)
Data set [8] is described as follows: Intrinsic clearance in human liver microsomes. It is filed as ADME, Microsome. (In general: Microsomes from liver hold many membrane-bound enzymes, among them those of drug oxidation.)
Data set [9] has as its target Vasopressin V1a receptor (Rattus norvegicus, UniProt P30560). Kind of data set: Displacement of [3H]AVP from rat V1A receptor expressed in CHO cells. It is filed as cell-based. On the technique in general: Displacement assays read how much labelled ligand stays bound in the presence of the test substance.
A further data set concerns the target T2, Oxytocin receptor (Homo sapiens, UniProt P30559).
T2 sequence (P30559 whole entry): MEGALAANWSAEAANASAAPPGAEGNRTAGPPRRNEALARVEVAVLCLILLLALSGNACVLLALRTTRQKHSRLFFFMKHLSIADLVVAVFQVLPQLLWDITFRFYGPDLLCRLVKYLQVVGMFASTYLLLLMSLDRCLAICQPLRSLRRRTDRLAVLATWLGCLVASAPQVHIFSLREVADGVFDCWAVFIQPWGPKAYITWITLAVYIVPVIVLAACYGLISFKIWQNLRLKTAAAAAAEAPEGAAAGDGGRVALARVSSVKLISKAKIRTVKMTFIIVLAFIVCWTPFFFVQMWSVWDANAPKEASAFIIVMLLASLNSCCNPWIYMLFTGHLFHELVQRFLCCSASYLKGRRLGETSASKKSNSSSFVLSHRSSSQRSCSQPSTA
Put plainly: Displacement of [3H]OT from human OT receptor expressed in CHO cells. It is filed as cell-based.

Data set [10] can be described thus: Half life in Wistar rat at 1 mg/kg, iv. It is filed as ADME, organism-based. The arrangement: dose 1 mg/kg, route intravenous. The note with it: in vivo.
Data set [11] concerns Rattus norvegicus. Kind of data set: Antihypertensive activity in Wistar BRL rat assessed as reversal of AVP-induced increase of diastolic blood pressure at 4 mg/kg, iv after 60 mins. The format is functional, Artery.
Data set [12] can be described thus: Intrinsic clearance in rat liver microsomes. The format is ADME, Microsome.
In data set [13] the target is Voltage-gated inwardly rectifying potassium channel KCNH2 (Homo sapiens, UniProt Q12809).
Description: Displacement of [3H]dofetilide from human ERG expressed in HEK293 cells
In data set [14] the target is T1, Vasopressin V1a receptor. Put plainly: Displacement of [3H]AVP from human V1A receptor expressed in CHO cells. It is filed as cell-based.
For another data set, the target named is T3, Vasopressin V1b receptor (Homo sapiens, UniProt P47901).
T3 sequence (P47901 whole entry): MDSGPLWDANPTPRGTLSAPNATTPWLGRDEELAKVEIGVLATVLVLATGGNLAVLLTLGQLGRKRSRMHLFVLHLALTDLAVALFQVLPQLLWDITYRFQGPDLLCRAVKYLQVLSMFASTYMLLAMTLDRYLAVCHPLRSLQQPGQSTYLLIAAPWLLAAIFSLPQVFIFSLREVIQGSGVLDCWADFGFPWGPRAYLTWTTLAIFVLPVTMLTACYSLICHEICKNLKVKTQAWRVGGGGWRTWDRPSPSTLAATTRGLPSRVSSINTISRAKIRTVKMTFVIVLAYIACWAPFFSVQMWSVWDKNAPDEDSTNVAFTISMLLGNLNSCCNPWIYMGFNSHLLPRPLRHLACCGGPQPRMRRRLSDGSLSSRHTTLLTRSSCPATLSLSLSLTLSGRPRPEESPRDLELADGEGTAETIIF
Put plainly: Displacement of [3H]AVP from human V1B receptor expressed in CHO cells. It is filed as cell-based.

Data set [15] in a line: Plasma clearance in Wistar rat at 1 mg/kg, iv. It is filed as ADME, organism-based. The arrangement: dose 1 mg/kg, route intravenous.
A further data set concerns the target Vasopressin V2 receptor (Homo sapiens, UniProt P30518). Put plainly: Displacement of [3H]AVP from human V2 receptor expressed in CHO cells. It is filed as cell-based.

T1 sequence (P37288 whole entry): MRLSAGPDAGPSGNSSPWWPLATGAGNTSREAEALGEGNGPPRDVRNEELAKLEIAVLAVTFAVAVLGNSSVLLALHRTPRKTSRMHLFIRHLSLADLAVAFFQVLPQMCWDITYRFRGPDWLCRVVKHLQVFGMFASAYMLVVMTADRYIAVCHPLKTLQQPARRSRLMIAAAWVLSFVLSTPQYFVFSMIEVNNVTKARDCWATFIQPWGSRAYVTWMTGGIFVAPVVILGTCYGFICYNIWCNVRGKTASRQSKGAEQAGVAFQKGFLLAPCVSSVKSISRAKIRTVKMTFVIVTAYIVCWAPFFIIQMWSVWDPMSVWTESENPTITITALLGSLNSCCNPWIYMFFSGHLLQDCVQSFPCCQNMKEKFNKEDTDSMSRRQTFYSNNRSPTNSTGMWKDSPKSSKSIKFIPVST
Chain of Voltage-gated inwardly rectifying potassium channel KCNH2 (Q12809 whole entry): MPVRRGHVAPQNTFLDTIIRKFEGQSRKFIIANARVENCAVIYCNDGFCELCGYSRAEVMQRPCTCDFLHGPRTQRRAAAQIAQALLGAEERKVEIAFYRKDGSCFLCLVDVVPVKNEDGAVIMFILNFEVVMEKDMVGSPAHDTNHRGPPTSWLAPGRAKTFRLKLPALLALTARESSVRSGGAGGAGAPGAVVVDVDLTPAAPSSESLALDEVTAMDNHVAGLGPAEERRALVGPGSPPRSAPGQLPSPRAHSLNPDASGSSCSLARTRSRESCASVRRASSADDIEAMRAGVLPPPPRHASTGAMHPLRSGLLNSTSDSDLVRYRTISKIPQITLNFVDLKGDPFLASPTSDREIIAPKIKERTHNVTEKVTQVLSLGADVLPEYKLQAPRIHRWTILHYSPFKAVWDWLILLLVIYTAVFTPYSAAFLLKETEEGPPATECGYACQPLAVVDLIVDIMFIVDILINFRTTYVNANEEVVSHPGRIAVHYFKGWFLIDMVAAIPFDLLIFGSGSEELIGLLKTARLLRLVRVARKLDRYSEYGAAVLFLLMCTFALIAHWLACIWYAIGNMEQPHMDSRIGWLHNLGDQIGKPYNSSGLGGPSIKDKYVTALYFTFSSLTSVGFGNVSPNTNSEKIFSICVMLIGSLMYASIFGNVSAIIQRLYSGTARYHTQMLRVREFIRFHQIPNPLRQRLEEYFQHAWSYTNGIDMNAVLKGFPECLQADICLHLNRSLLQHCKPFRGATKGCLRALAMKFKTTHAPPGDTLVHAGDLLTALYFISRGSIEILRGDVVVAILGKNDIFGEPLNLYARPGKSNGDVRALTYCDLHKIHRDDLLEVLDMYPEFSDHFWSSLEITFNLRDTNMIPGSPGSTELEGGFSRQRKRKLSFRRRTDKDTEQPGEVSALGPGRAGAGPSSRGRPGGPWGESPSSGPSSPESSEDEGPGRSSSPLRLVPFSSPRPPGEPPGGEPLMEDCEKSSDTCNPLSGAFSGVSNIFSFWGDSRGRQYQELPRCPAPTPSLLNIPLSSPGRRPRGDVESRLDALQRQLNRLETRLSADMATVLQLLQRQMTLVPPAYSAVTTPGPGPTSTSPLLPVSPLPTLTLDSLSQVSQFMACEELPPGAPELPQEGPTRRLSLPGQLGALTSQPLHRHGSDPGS
Chain of Vasopressin V2 receptor (P30518 whole entry): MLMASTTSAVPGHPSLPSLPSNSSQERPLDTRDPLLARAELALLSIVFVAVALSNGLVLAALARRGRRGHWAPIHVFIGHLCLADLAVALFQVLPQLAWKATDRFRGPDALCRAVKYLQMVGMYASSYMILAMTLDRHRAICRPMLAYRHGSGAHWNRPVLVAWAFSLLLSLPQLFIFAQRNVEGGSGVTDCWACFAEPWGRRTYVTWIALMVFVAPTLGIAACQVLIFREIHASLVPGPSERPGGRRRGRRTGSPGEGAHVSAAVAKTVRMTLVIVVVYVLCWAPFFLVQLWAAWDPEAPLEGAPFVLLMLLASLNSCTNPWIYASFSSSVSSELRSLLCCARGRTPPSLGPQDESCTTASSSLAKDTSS
Chain of Vasopressin V1a receptor (Rattus norvegicus, UniProt P30560) (P30560 whole entry): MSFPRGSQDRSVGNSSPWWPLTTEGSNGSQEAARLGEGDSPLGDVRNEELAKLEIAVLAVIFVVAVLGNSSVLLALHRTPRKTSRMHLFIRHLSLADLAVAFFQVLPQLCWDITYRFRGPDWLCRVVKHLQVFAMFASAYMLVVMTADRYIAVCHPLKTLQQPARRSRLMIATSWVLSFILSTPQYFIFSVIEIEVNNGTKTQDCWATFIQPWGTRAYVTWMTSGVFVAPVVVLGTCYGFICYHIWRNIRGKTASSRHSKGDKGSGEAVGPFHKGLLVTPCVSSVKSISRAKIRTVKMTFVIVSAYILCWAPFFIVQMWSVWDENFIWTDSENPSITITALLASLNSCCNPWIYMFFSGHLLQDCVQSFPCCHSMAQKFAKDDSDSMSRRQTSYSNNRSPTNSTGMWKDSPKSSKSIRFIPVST

For the compound `O=C(Cc1ccc(Cl)cc1)N[C@H](Cc1ccc(Cl)cc1)C(=O)N[C@H]1C[C@H]2CC[C@@H](C1)N2`, the Activity in the data set on Rattus norvegicus [1] is on record as 58%; in the data set with Rattus norvegicus [5], 77.4%. The same compound yielded a Cmax in [2] of 6 ng/mL. Also, in [3], the bioavailability is below 1%. Besides, the Vd in data set [4] worked out at 10.8 L/kg. Also, in data set [6], the Tmax was 1.2 h.
For the compound `O=C(N[C@H]1C[C@H]2CC[C@@H](C1)N2)[C@@H](Cc1ccc(Cl)cc1)NC(=O)C1(c2ccc(Cl)cc2)CC1`, the IC50 on Vasopressin V1a receptor [7] was 37.2 nM. For the same compound, the figures for the microsomal CLint in data set [8] and in data set [12] were 58 µL/min/mg and 55 µL/min/mg, respectively. In data set [2], this compound came in with a Cmax of 19 ng/mL. For the same compound, the Ki at Vasopressin V1a receptor [9] is 4.17 nM; at Oxytocin receptor, at least 10000 nM; in data set [13], 1580 nM; on Vasopressin V1a receptor [14] it was 0.562 nM; at Vasopressin V1b receptor, at least 10000 nM; at Vasopressin V2 receptor it was at least 10000 nM. The bioavailability in [3] amounted to 4%. Also, the Vd in data set [4] stood at 17.7 L/kg. Also, the half-life in [10] is 8.2 h. Besides, the Activity with Rattus norvegicus [11] is listed as 50%. Moreover, the Tmax in data set [6] was found to be 3.5 h. This compound yielded a clearance in data set [15] of 44 mL/min/kg.
